From US8916551B2, “Heterocyclic compound and use thereof” (Takeda Pharmaceutical Company Limited, priority 2010, dated 2014)
Structures can show the parent of a compound that is named as a salt.

Target: T1, AMPA receptor (human GluR1 flip/stargazin expressed in CHO-K1 cells) (Homo sapiens, UniProt P42261)
T1 construct: expressed in transfected cells; host or cells: CHO-K1
Assay: AMPA receptor function enhancing activity using calcium influx as index
Assay type: cell-based
Conditions: 100% = 3 mM glutamic acid + 300 μM cyclothiazide, 0% = 3 mM glutamic acid only
Summary of the method: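 CHO-K1 clone stably co-expressing human GluR1 flip and stargazin, loaded with Calcium 4 dye plus probenecid. Compound at 30 μM was added with glutamate (3 mM final) and fluorescence change followed over 3 min. Activity is expressed as % of the 3 mM glutamate plus 300 μM cyclothiazide response, with glutamate alone as 0%.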

[1] = test compound 30 μM with 3 mM glutamic acid, change in fluorescence level in 3 min
[2] = test compound 30 μM with glutamic acid final 3 mM, change in fluorescence in 3 min

T1 sequence (P42261 19-906 isoform P42261-2 limits assumed): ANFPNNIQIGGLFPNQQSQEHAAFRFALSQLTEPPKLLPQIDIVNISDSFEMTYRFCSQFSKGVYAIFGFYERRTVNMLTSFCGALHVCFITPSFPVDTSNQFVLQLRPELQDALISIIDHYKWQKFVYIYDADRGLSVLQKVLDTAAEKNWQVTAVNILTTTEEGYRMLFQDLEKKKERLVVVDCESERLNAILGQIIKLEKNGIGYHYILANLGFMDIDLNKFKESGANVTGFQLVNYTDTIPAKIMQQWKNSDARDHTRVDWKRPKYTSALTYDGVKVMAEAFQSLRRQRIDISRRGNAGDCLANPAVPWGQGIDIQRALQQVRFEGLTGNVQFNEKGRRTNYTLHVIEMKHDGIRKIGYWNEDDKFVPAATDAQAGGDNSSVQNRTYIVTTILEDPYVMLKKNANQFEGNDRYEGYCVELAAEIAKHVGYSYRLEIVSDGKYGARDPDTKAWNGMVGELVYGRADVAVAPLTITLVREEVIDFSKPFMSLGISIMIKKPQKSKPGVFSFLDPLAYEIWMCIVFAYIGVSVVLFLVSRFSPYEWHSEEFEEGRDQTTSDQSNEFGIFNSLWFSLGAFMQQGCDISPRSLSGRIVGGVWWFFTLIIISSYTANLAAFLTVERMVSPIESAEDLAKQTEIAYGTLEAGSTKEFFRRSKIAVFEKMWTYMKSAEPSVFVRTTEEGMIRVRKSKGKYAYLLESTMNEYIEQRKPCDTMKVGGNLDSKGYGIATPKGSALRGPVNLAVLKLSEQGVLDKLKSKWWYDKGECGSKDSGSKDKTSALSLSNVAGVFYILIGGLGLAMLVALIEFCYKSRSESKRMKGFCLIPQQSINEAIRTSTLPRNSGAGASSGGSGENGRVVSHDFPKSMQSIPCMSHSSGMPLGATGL
T1 sequence (Q9Y698 whole entry partner): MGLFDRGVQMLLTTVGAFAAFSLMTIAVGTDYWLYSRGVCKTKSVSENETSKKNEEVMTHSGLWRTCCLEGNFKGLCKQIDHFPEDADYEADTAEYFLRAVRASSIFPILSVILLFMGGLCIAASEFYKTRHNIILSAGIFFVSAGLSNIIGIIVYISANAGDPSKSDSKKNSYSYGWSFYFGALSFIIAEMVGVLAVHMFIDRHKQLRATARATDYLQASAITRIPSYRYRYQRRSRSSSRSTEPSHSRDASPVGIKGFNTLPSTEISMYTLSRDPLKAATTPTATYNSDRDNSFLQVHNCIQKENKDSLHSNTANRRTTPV

SMILES | activity (%) [1] | activity (%) [2]
O=S1(=O)CCN2CCCC(c3ccc(-n4cccn4)cc3)C2=N1 (centres unmarked) [Example 290, 9-[4-(1H-pyrazol-1-yl)phenyl]-3,4,6,7,8,9-hexahydropyrido[2,1-c][1,2,4]thiadiazine 2,2-dioxide] | 79% | –
CCCCn1ccc2cc(C3CCCN4CCS(=O)(=O)N=C34)ccc21 (centres unmarked) [Example 294, 9-(1-butyl-1H-indol-5-yl)-3,4,6,7,8,9-hexahydropyrido[2,1-c][1,2,4]thiadiazine 2,2-dioxide] | – | 82%
O=S1(=O)CCN2CCCC(c3ccc4c(ccn4CCc4ccc(F)cc4)c3)C2=N1 (centres unmarked) [Example 295, 9-{1-[2-(4-fluorophenyl)ethyl]-1H-indol-5-yl}-3,4,6,7,8,9-hexahydropyrido[2,1-c][1,2,4]thiadiazine 2,2-dioxide] | – | 64%
O=C(c1ccccc1)c1ccc(C2=CC=CN3CCS(=O)(=O)N=C23)cc1 [Example 298, [4-(2,2-dioxido-3,4-dihydropyrido[2,1-c][1,2,4]thiadiazin-9-yl)phenyl](phenyl)methanone] | – | 99%
O=S1(=O)CCN2C=CC=C(c3ccc(-n4nc(C(F)(F)F)cc4C4CC4)cc3)C2=N1 [Example 299, 9-{4-[5-cyclopropyl-3-(trifluoromethyl)-1H-pyrazol-1-yl]phenyl}-3,4-dihydropyrido[2,1-c][1,2,4]thiadiazine 2,2-dioxide] | – | 88%
O=S1(=O)CCN2CCCC(c3ccc(-n4nc(C(F)(F)F)cc4C4CC4)cc3)C2=N1 (centres unmarked) [Example 301, 9-{4-[5-cyclopropyl-3-(trifluoromethyl)-1H-pyrazol-1-yl]phenyl}-3,4,6,7,8,9-hexahydropyrido[2,1-c][1,2,4]thiadiazine 2,2-dioxide] | – | 76%
O=S1(=O)CCN2CCCC(COc3ccc4c(c3)CCCC4)C2=N1 (centres unmarked) [Example 303, 9-[(5,6,7,8-tetrahydronaphthalen-2-yloxy)methyl]-3,4,6,7,8,9-hexahydropyrido[2,1-c][1,2,4]thiadiazine 2,2-dioxide] | – | 82%
O=C(c1ccccc1)c1ccc(C2CCCN3CCS(=O)(=O)N=C23)cc1 (centres unmarked) [Example 304, [4-(2,2-dioxido-3,4,6,7,8,9-hexahydropyrido[2,1-c][1,2,4]thiadiazin-9-yl)phenyl](phenyl)methanone] | – | 87%
O=S1(=O)CCN2C=CC=C(c3ccc(Oc4ccc5c(c4)OCC5)cc3)C2=N1 [Example 313, 9-[4-(2,3-dihydro-1-benzofuran-6-yloxy)phenyl]-3,4-dihydropyrido[2,1-c][1,2,4]thiadiazine 2,2-dioxide] | – | 95%
COc1cc(Oc2ccc(C3=CC=CN4CCS(=O)(=O)N=C34)cc2)ccc1F [Example 316, 9-[4-(4-fluoro-3-methoxyphenoxy)phenyl]-3,4-dihydropyrido[2,1-c][1,2,4]thiadiazine 2,2-dioxide] | – | 89%
O=S1(=O)CCN2CCCC(c3ccc(C4(c5ccccc5)CCC4)cc3)C2=N1 (centres unmarked) [Example 321, 9-[4-(1-phenylcyclobutyl)phenyl]-3,4,6,7,8,9-hexahydropyrido[2,1-c][1,2,4]thiadiazine 2,2-dioxide] | – | 64%
CC(F)(F)c1ccc(Oc2ccc(C3=CC=CN4CCS(=O)(=O)N=C34)cc2)cc1 [Example 323, 9-{4-[4-(1,1-difluoroethyl)phenoxy]phenyl}-3,4-dihydropyrido[2,1-c][1,2,4]thiadiazine 2,2-dioxide] | – | 85%
Cc1ccc(Cc2ccc(C3CCCN4CCS(=O)(=O)N=C34)cc2)cc1 (centres unmarked) [Example 324, 9-[4-(4-methylbenzyl)phenyl]-3,4,6,7,8,9-hexahydropyrido[2,1-c][1,2,4]thiadiazine 2,2-dioxide] | – | 63%
Cc1ccc(C(C)(C)c2ccc(C3=CC=CN4CCS(=O)(=O)N=C34)cc2)cc1 [Example 329, 9-{4-[1-methyl-1-(4-methylphenyl)ethyl]phenyl}-3,4-dihydropyrido[2,1-c][1,2,4]thiadiazine 2,2-dioxide] | – | 82%
O=S1(=O)CCN2C=CN=C(c3ccc(-c4ccccc4)c(F)c3)C2=N1 [Example 344, 9-(2-fluorobiphenyl-4-yl)-3,4-dihydropyrazino[2,1-c][1,2,4]thiadiazine 2,2-dioxide] | – | 74%
O=S1(=O)CCN2CCNC(c3ccc(-c4ccccc4)c(F)c3)C2=N1 (centres unmarked) [Example 345, 9-(2-fluorobiphenyl-4-yl)-3,4,6,7,8,9-hexahydropyrazino[2,1-c][1,2,4]thiadiazine 2,2-dioxide] | – | 63%
O=S1(=O)CCN2CCCC(c3ccc(Oc4ccccc4)c(F)c3)C2=N1 (centres unmarked) [Example 347, 9-(3-fluoro-4-phenoxyphenyl)-3,4,6,7,8,9-hexahydropyrido[2,1-c][1,2,4]thiadiazine 2,2-dioxide] | – | 76%
[2H]C1(c2ccc(-c3ccccc3)c(F)c2)NCCN2CCS(=O)(=O)N=C21 (centres unmarked) [Example 348, 9-(2-fluorobiphenyl-4-yl)(9-^2H)-3,4,6,7,8,9-hexahydropyrazino[2,1-c][1,2,4]thiadiazine 2,2-dioxide Hydrochloride] | – | 64%
CCCOc1ccc(C2CCCN3CCS(=O)(=O)N=C23)cc1F (centres unmarked) [Example 350, 9-(3-fluoro-4-propoxyphenyl)-3,4,6,7,8,9-hexahydropyrido[2,1-c][1,2,4]thiadiazine 2,2-dioxide] | – | 74%
CCCCOc1ccc(C2CCCN3CCS(=O)(=O)N=C23)cc1F (centres unmarked) [Example 352, 9-(4-butoxy-3-fluorophenyl)-3,4,6,7,8,9-hexahydropyrido[2,1-c][1,2,4]thiadiazine 2,2-dioxide] | – | 76%
O=S1(=O)CCN2CCCC(c3ccc(Oc4ccc(F)cc4)cc3)C2=N1 (centres unmarked) [Example 357, 9-[4-(4-fluorophenoxy)phenyl]-3,4,6,7,8,9-hexahydropyrido[2,1-c][1,2,4]thiadiazine 2,2-dioxide] | – | 77%
O=S1(=O)CCN2C=CC=C(c3ccc(N4CCOCC4)cc3)C2=N1 [Example 397, 9-(4-morpholin-4-ylphenyl)-3,4-dihydropyrido[2,1-c][1,2,4]thiadiazine 2,2-dioxide] | – | 83%
CC(C)(C)Oc1ccc(C2=CC=CN3CCS(=O)(=O)N=C23)cc1 [Example 411, 9-(4-tert-butoxyphenyl)-3,4-dihydropyrido[2,1-c][1,2,4]thiadiazine 2,2-dioxide] | – | 86%

The next lines start with the values.

activity (%) [1] | activity (%) [2] | SMILES
90% | – | CCCCn1ccc2cc(C3=CC=CN4CCS(=O)(=O)N=C34)ccc21 [Example 292, 9-(1-butyl-1H-indol-5-yl)-3,4-dihydropyrido[2,1-c][1,2,4]thiadiazine 2,2-dioxide]
– | 80% | CC(C)Cn1ccc2cc(C3=CC=CN4CCS(=O)(=O)N=C34)ccc21 [Example 293, 9-[1-(2-methylpropyl)-1H-indol-5-yl]-3,4-dihydropyrido[2,1-c][1,2,4]thiadiazine 2,2-dioxide]
– | 93% | Cc1cc(C(F)(F)F)nn1-c1ccc(C2=CC=CN3CCS(=O)(=O)N=C23)cc1 [Example 300, 9-{4-[5-methyl-3-(trifluoromethyl)-1H-pyrazol-1-yl]phenyl}-3,4-dihydropyrido[2,1-c][1,2,4]thiadiazine 2,2-dioxide]
– | 89% | COc1cccc(C(=O)c2ccc(C3=CC=CN4CCS(=O)(=O)N=C34)cc2)c1 [Example 306, [4-(2,2-dioxido-3,4-dihydropyrido[2,1-c][1,2,4]thiadiazin-9-yl)phenyl](3-methoxyphenyl)methanone]
– | 99% | CC(C)(c1ccccc1)c1ccc(C2=CC=CN3CCS(=O)(=O)N=C23)cc1 [Example 325, 9-[4-(1-methyl-1-phenylethyl)phenyl]-3,4-dihydropyrido[2,1-c][1,2,4]thiadiazine 2,2-dioxide]
– | 83% | CCCOc1ccc(C2=CC=CN3CCS(=O)(=O)N=C23)cc1F [Example 349, 9-(3-fluoro-4-propoxyphenyl)-3,4-dihydropyrido[2,1-c][1,2,4]thiadiazine 2,2-dioxide]
– | 85% | CC(C)Oc1ccc(C2=CC=CN3CCS(=O)(=O)N=C23)cc1F [Example 361, 9-[3-fluoro-4-(1-methylethoxy)phenyl]-3,4-dihydropyrido[2,1-c][1,2,4]thiadiazine 2,2-dioxide]
– | 82% | O=S1(=O)CCN2C=CC=C(c3ccc(C4(F)COC4)cc3)C2=N1 [Example 396, 9-[4-(3-fluorooxetan-3-yl)phenyl]-3,4-dihydropyrido[2,1-c][1,2,4]thiadiazine 2,2-dioxide]
– | 83% | CC(=O)c1ccc(C2=CC=CN3CCS(=O)(=O)N=C23)cc1 [Example 400, 1-[4-(2,2-dioxido-3,4-dihydropyrido[2,1-c][1,2,4]thiadiazin-9-yl)phenyl]ethanone]
– | 85% | CSc1ccc(C2=CC=CN3CCS(=O)(=O)N=C23)cc1 [Example 408, 9-[4-(methylsulfanyl)phenyl]-3,4-dihydropyrido[2,1-c][1,2,4]thiadiazine 2,2-dioxide]
– | 91% | Cn1ccc2cc(C3=CC=CN4CCS(=O)(=O)N=C34)ccc21 [Example 412, 9-(1-methyl-1H-indol-5-yl)-3,4-dihydropyrido[2,1-c][1,2,4]thiadiazine 2,2-dioxide]
– | 80% | Cc1ccc(C2=CC=CN3CCS(=O)(=O)N=C23)cc1F [Example 423, 9-(3-fluoro-4-methylphenyl)-3,4-dihydropyrido[2,1-c][1,2,4]thiadiazine 2,2-dioxide]
